Experimental data as given in ChEMBL document CHEMBL3352623, “Improved antiproliferative activity of 1,3,4-thiadiazole-containing histone deacetylase (HDAC) inhibitors by introduction of the heteroaromatic surface recognition motif” (Bioorg Med Chem, 2014).

Key:
MDA-MB-231 = experiment: Antiproliferative activity against human MDA-MB-231 cells after 48 hrs by MTT assay; format: functional, cell-based; details: MDA-MB-231, 48 h
[1] = target: Histone deacetylase (HDAC1 and HDAC2) (Homo sapiens, UniProt Q13547+Q92769); experiment: Inhibition of HDAC1/HDAC2 in human HeLa cell extract incubated for 5 mins prior to substrate addition measured after 30 mins by microtitre plate reader analysis; format: cell-based
[2] = Antiproliferative activity against human PC3 cells after 48 hrs by MTT assay; format: functional, cell-based; details: PC-3, 48 h
K562 = experiment: Antiproliferative activity against human K562 cells after 48 hrs by MTT assay; format: functional, cell-based; details: K562, 48 h

IC50 (MDA-MB-231) [µM]	IC50 [1] [µM]	IC50 (K562) [µM]	SMILES	IC50 [2] [µM]
2.29	–	–	O=C(CCCCCCC(=O)Nc1ccccc1)NO [VORINOSTAT]	–
–	0.847	–	O=C(CCCCCC(=O)Nc1nnc(-c2cccc(Cl)c2)s1)NO	–
40.1	0.411	> 60	O=C(CCCCCC(=O)Nc1nnc(-c2ccncc2)s1)NO	> 60
–	0.988	–	O=C(CCCCCC(=O)Nc1nnc(-c2ccc(Cl)cc2)s1)NO	–
15.2	0.411	> 60	O=C(CCCCCC(=O)Nc1nnc(-c2cccs2)s1)NO	> 60
1.21	0.31	1.56	O=C(CCCCCCC(=O)Nc1nnc(-c2cccs2)s1)NO	3.6
–	0.741	–	O=C(CCCCCC(=O)Nc1nnc(-c2ccc(F)cc2)s1)NO	–
–	0.437	–	COc1ccc(-c2nnc(NC(=O)CCCCCC(=O)NO)s2)cc1	–
–	> 5	–	O=C(CCCCCCC(=O)Nc1nnc(-c2ccc3ccccc3c2)s1)NO	–
–	> 5	–	O=C(CCCCCCC(=O)Nc1nnc(-c2ccc(I)cc2)s1)NO	–
–	0.598	–	CS(=O)(=O)c1ccc(-c2nnc(NC(=O)CCCCCCC(=O)NO)s2)cc1	–
–	1.285	–	O=C(CCCCCC(=O)Nc1nnc(-c2ccc(Br)cc2)s1)NO	–
–	0.507	–	O=C(CCCCCC(=O)Nc1nnc(-c2ccccc2Cl)s1)NO	–
–	0.875	–	O=C(CCCCCC(=O)Nc1nnc(-c2ccc(I)cc2)s1)NO	–
–	> 5	–	O=C(CCCCCCC(=O)Nc1nnc(-c2ccc(-c3ccccc3)cc2)s1)NO	–
–	> 5	–	O=C(CCCCCC(=O)Nc1nnc(-c2ccc3ccccc3c2)s1)NO	–
–	0.721	–	CS(=O)(=O)c1ccc(-c2nnc(NC(=O)CCCCCC(=O)NO)s2)cc1	–
–	0.487	–	COc1ccc(-c2nnc(NC(=O)CCCCCC(=O)NO)s2)cc1OC	–

IC50 (MDA-MB-231) [µM]	IC50 [1] [µM]	IC50 (K562) [µM]	SMILES	IC50 [2] [µM]
–	> 5	–	O=C(CCCCCCC(=O)Nc1nnc(-c2cccc3ccccc23)s1)NO	–
–	0.709	–	O=C(CCCCCC(=O)Nc1nnc(-c2ccc([N+](=O)[O-])cc2)s1)NO	–
–	1.215	–	O=C(CCCCCCC(=O)Nc1nnc(-c2cccc(Br)c2)s1)NO	–
–	> 5	–	CN(C)c1ccc(-c2nnc(NC(=O)CCCCCC(=O)NO)s2)cc1	–
–	0.526	–	O=C(CCCCCCC(=O)Nc1nnc(-c2ccccc2Br)s1)NO	–
1.87	0.386	4.36	O=C(CCCCCCC(=O)Nc1nnc(-c2cccnc2)s1)NO	7.98
4.69	0.286	4.15	O=C(CCCCCCC(=O)Nc1nnc(-c2ccncc2)s1)NO	7.75
–	1.154	–	O=C(CCCCCC(=O)Nc1nnc(-c2ccc(C(F)(F)F)cc2)s1)NO	–
–	> 5	–	O=C(CCCCCCC(=O)Nc1nnc(-c2ccc(N3CCOCC3)cc2)s1)NO	–
–	> 5	–	O=C(CCCCCC(=O)Nc1nnc(-c2ccc(-c3ccccc3)cc2)s1)NO	–
–	> 5	–	O=C(CCCCCCC(=O)Nc1nnc(-c2ccc(C(F)(F)F)cc2)s1)NO	–
–	0.434	–	O=C(CCCCCC(=O)Nc1nnc(-c2ccco2)s1)NO	–
–	0.422	–	Cc1ccc(-c2nnc(NC(=O)CCCCCC(=O)NO)s2)cc1	–
–	> 5	–	O=C(CCCCCC(=O)Nc1nnc(-c2ccc(N3CCOCC3)cc2)s1)NO	–
–	0.436	–	O=C(CCCCCCC(=O)Nc1nnc(-c2ccco2)s1)NO	–
11.7	0.325	> 60	O=C(CCCCCC(=O)Nc1nnc(-c2cccnc2)s1)NO	54.4
–	3.186	–	O=C(CCCCCC(=O)Nc1nnc(-c2cccc3ccccc23)s1)NO	–
